# Test results from ChEMBL document CHEMBL3991601, “The target landscape of clinical kinase drugs” (Science, 2017).
# Active and inactive are the calls of the source.
# How the values were obtained:
# [1] = target: T1, Peroxisomal acyl-coenzyme A oxidase 1 (Homo sapiens, UniProt Q15067)
# T1 sequence (Q15067 whole entry): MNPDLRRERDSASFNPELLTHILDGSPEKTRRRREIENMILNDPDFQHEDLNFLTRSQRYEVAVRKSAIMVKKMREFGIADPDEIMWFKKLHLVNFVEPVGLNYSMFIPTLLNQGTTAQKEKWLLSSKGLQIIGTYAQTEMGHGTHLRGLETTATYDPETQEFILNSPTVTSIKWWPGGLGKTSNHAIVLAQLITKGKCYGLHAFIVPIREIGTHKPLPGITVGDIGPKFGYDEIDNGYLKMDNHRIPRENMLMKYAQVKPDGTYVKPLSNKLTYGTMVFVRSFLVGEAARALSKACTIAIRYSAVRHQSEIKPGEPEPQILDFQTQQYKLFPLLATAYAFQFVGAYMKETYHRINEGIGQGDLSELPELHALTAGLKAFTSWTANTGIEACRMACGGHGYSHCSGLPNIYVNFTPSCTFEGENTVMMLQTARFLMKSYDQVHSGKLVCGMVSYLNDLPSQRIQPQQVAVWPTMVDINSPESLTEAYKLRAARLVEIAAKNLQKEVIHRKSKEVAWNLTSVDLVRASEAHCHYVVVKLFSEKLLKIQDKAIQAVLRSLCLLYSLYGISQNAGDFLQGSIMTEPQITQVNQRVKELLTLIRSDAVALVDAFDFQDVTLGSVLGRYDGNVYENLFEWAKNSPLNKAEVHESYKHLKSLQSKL
# [2] = target: Serine/threonine-protein kinase/endoribonuclease IRE1 (Homo sapiens, UniProt O75460)
# Sequence of Serine/threonine-protein kinase/endoribonuclease IRE1 (O75460 whole entry): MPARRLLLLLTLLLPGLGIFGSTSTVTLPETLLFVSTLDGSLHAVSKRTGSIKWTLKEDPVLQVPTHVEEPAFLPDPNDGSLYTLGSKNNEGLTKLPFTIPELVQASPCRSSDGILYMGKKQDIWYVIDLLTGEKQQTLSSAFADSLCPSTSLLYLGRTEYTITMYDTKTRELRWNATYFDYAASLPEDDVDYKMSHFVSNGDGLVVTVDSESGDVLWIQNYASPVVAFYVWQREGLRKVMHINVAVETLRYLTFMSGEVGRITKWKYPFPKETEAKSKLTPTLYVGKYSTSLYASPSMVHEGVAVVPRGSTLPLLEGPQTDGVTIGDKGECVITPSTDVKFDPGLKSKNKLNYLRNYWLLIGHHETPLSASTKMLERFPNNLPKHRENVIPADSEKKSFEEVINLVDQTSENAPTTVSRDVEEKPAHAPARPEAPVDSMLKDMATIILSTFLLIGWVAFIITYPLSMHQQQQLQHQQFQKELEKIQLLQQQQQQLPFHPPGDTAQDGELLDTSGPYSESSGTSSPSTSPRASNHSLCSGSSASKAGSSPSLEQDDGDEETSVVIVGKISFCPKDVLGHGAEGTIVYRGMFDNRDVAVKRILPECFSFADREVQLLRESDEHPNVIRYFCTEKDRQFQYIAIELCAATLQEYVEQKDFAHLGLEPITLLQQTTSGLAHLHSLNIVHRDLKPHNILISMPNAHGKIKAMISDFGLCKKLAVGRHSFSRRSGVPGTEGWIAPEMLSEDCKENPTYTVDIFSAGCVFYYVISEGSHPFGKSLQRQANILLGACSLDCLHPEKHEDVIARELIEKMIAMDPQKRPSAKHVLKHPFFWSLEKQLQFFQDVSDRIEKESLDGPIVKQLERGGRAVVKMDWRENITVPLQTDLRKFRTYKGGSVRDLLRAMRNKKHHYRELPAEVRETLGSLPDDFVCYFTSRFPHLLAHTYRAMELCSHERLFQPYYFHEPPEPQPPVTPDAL
# [3] = target: Glycogen synthase kinase-3 beta (Homo sapiens, UniProt P49841)
# Sequence of Glycogen synthase kinase-3 beta (P49841 whole entry): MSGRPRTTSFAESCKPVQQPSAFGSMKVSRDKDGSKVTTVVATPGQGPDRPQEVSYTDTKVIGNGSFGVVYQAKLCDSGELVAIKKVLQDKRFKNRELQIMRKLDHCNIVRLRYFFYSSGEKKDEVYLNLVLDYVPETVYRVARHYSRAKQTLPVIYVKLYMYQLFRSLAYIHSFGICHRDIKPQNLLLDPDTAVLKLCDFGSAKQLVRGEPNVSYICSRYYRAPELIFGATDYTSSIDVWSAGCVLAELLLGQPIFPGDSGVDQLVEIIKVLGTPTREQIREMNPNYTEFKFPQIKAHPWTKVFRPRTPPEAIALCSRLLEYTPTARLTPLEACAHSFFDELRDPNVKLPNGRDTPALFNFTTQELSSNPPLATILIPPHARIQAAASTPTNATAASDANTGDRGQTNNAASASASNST
# [4] = target: Mitogen-activated protein kinase 11 (Homo sapiens, UniProt Q15759)
# Sequence of Mitogen-activated protein kinase 11 (Q15759 whole entry): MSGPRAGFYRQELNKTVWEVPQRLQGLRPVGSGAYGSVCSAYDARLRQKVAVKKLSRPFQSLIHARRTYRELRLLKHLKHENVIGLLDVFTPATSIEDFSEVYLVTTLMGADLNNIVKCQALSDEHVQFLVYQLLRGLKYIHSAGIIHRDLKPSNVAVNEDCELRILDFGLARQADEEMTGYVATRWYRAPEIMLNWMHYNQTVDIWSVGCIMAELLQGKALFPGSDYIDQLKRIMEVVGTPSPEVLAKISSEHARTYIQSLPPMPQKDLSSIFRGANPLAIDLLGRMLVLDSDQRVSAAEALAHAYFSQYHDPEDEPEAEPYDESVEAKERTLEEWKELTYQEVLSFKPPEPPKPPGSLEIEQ
# [5] = target: MAP/microtubule affinity-regulating kinase 3 (Homo sapiens, UniProt P27448)
# Sequence of MAP/microtubule affinity-regulating kinase 3 (P27448 whole entry): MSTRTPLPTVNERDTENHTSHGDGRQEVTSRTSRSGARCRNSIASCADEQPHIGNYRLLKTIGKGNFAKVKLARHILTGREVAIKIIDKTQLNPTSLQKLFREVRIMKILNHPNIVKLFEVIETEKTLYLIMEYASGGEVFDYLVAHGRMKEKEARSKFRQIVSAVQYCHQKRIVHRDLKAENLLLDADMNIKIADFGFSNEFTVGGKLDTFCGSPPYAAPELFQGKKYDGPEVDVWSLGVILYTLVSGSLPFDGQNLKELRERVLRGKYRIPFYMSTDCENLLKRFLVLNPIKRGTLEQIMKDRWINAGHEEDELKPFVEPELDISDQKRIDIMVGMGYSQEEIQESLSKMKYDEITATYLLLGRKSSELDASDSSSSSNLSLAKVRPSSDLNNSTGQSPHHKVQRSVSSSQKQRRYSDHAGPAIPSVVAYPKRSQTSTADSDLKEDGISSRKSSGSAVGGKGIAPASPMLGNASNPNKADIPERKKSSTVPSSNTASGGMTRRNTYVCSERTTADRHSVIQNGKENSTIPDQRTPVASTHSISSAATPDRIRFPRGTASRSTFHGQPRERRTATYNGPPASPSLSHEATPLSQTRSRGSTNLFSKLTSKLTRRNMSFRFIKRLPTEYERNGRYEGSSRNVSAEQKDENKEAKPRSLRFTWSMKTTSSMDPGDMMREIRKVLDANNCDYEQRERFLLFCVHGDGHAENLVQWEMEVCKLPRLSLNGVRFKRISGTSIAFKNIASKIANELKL
# [6] = target: T2, Serine/threonine-protein kinase NLK (Homo sapiens, UniProt Q9UBE8)
# T2 sequence (Q9UBE8 whole entry): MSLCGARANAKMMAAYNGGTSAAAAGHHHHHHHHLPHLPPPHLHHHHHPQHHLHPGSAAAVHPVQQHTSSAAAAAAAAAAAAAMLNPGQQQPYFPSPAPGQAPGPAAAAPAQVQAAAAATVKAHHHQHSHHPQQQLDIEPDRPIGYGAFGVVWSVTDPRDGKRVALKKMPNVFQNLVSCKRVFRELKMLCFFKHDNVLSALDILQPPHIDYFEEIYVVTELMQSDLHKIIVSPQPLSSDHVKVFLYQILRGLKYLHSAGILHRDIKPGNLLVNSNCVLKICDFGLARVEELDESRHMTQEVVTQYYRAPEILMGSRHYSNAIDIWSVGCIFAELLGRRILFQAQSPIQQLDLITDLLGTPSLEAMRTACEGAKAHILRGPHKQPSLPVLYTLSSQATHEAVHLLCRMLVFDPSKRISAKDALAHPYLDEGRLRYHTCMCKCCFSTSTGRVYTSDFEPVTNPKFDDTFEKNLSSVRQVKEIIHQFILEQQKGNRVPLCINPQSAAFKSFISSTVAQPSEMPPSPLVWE
# [7] = target: Serine/threonine-protein kinase PAK 6 (Homo sapiens, UniProt Q9NQU5)
# Sequence of Serine/threonine-protein kinase PAK 6 (Q9NQU5 whole entry): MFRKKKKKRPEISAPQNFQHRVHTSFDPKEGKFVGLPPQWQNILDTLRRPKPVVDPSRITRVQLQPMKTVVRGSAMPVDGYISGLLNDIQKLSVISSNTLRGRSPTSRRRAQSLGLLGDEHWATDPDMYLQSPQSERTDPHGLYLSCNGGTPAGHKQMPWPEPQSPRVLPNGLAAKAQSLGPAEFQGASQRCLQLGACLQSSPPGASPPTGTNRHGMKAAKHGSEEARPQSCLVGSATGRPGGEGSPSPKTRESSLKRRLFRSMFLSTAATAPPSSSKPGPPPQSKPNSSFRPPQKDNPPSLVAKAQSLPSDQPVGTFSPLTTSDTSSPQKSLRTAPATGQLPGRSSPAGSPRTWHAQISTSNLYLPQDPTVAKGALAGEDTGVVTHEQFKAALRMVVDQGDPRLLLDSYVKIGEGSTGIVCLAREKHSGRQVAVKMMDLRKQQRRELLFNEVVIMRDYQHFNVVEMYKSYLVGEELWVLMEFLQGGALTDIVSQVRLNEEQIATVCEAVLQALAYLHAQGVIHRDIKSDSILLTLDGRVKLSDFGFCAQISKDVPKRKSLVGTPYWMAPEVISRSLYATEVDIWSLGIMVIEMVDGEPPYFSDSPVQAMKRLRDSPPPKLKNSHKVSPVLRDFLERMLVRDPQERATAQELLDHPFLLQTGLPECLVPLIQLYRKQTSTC
# [8] = target: Protein-tyrosine kinase 2-beta (Homo sapiens, UniProt Q14289)
# Sequence of Protein-tyrosine kinase 2-beta (Q14289 whole entry): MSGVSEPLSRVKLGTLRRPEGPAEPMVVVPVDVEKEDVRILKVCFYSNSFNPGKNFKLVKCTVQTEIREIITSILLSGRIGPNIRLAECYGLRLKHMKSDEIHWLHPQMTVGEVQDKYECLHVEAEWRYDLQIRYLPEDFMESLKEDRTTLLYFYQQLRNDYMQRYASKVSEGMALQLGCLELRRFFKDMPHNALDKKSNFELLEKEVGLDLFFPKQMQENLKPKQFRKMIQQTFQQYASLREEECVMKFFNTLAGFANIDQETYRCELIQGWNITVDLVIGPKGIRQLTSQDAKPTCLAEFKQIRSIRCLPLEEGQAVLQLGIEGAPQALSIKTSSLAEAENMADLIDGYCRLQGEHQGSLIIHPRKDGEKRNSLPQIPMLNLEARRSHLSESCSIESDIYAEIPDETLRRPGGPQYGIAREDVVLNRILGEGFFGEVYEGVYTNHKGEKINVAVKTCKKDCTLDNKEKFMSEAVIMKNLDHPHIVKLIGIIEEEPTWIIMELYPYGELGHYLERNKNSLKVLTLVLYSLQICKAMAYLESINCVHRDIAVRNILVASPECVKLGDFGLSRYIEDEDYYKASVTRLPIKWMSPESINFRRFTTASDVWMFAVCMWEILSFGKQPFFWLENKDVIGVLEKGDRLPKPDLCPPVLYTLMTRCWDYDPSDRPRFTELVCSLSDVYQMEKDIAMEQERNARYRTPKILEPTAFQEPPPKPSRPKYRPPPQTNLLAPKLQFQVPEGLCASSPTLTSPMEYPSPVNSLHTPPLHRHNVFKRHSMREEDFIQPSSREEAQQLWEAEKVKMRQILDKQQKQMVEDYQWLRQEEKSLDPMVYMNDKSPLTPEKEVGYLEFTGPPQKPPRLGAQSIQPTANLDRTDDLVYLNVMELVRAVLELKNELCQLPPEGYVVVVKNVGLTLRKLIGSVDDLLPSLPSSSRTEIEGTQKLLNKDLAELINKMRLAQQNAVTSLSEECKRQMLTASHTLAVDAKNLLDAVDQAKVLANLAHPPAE
# Septin-9 = target: T3, Septin-9 (Homo sapiens, UniProt Q9UHD8)
# T3 sequence (Q9UHD8 whole entry): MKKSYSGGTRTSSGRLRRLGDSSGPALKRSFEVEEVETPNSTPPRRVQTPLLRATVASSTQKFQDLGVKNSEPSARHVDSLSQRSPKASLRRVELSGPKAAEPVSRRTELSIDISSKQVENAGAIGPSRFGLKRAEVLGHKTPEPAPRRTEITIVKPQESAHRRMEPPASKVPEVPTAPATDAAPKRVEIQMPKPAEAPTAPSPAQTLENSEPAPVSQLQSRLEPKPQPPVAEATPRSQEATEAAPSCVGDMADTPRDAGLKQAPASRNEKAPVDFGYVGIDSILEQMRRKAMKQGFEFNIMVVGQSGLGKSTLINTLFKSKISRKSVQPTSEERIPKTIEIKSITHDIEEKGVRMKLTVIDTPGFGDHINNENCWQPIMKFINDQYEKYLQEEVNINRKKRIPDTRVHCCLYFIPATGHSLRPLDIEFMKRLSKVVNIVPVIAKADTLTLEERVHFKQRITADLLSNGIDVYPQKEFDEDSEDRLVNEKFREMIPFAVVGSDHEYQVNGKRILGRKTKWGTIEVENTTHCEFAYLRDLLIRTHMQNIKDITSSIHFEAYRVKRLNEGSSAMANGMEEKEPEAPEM
# ADP/ATP translocase 2 = target: T4, ADP/ATP translocase 2 (Homo sapiens, UniProt P05141)
# T4 sequence (P05141 whole entry): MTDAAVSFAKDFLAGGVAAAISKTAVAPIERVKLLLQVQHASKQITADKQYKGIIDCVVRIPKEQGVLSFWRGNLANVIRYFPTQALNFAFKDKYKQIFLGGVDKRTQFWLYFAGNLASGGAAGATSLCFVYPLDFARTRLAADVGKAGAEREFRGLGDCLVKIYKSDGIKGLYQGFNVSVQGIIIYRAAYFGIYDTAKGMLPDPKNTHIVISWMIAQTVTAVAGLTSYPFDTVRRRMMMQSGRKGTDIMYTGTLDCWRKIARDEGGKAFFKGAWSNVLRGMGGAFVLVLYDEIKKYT
# [9] = target: T5, Serine/threonine-protein kinase STK11 (Homo sapiens, UniProt Q15831)
# T5 sequence (Q15831 whole entry): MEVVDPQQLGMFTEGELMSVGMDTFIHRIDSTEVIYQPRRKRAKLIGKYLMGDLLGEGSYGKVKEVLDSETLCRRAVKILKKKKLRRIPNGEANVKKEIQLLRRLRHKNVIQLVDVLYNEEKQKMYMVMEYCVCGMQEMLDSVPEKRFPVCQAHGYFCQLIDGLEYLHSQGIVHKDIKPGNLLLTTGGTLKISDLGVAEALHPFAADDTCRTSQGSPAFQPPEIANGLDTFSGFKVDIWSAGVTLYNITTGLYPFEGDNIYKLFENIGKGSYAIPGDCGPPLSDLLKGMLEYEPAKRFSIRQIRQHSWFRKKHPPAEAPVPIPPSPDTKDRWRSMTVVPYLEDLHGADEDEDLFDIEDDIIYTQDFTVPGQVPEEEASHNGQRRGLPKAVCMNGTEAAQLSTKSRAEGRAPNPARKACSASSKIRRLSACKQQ
# Further: in the data inactive means no Kd found up to 30 µM.
SMILES,Kd [1],Kd [2],Kd [3],Kd [4],Kd [5],Kd [6],Kd [7],Kd [8],Kd (Septin-9),Kd (ADP/ATP translocase 2),Kd [9]
O=C(Nc1nc2cccc(-c3ccc(CN4CCS(=O)(=O)CC4)cc3)n2n1)C1CC1 [FILGOTINIB],> 30 µM (inactive),> 30 µM (inactive),> 30 µM (inactive),> 30 µM (inactive),> 30 µM (inactive),> 30 µM (inactive),> 30 µM (inactive),> 30 µM (inactive),> 30 µM (inactive),> 30 µM (inactive),> 30 µM (inactive)
Cc1cccc(-c2nn3c(c2-c2ccnc4ccc(C(N)=O)cc24)CCC3)n1 [GALUNISERTIB],> 30 µM (inactive),> 30 µM (inactive),> 30 µM (inactive),> 30 µM (inactive),> 30 µM (inactive),> 30 µM (inactive),> 30 µM (inactive),> 30 µM (inactive),> 30 µM (inactive),> 30 µM (inactive),> 30 µM (inactive)
O=C(Nc1cc(C(F)(F)F)cc(C(F)(F)F)c1)c1cc(Cl)ccc1O [IMD-0354],> 30 µM (inactive),> 30 µM (inactive),> 30 µM (inactive),> 30 µM (inactive),> 30 µM (inactive),> 30 µM (inactive),> 30 µM (inactive),> 30 µM (inactive),> 30 µM (inactive),> 30 µM (inactive),> 30 µM (inactive)
CNC(=O)c1nn(C)c2c1C(C)(C)Cc1cnc(Nc3ccc(N4CCN(C)CC4)cc3)nc1-2 [MILCICLIB],> 30 µM (inactive),> 30 µM (inactive),> 30 µM (inactive),> 30 µM (inactive),3.44 µM (active),> 30 µM (inactive),> 30 µM (inactive),> 30 µM (inactive),> 30 µM (inactive),> 30 µM (inactive),> 30 µM (inactive)
Cn1cc(-c2cnc3ccc4ccc(CS(=O)(=O)NCc5ccccn5)cc4c(=O)c3c2)cn1 [MK-8033],> 30 µM (inactive),> 30 µM (inactive),> 30 µM (inactive),> 30 µM (inactive),> 30 µM (inactive),> 30 µM (inactive),> 30 µM (inactive),> 30 µM (inactive),> 30 µM (inactive),> 30 µM (inactive),> 30 µM (inactive)
CCOc1cc2ncc(C#N)c(Nc3ccc(F)c(Cl)c3)c2cc1NC(=O)/C=C/CN(C)C [PELITINIB],> 30 µM (inactive),> 30 µM (inactive),> 30 µM (inactive),> 30 µM (inactive),> 30 µM (inactive),> 30 µM (inactive),> 30 µM (inactive),> 30 µM (inactive),> 30 µM (inactive),> 30 µM (inactive),> 30 µM (inactive)
Cc1cnc(NC(=O)Nc2cc(Br)c(C)cc2OC[C@@H]2CNCCO2)cn1 [RABUSERTIB],> 30 µM (inactive),> 30 µM (inactive),> 30 µM (inactive),> 30 µM (inactive),> 30 µM (inactive),> 30 µM (inactive),> 30 µM (inactive),> 30 µM (inactive),> 30 µM (inactive),> 30 µM (inactive),> 30 µM (inactive)
N#CC1(c2ccc(NC(=O)c3cccnc3NCc3ccncc3)cc2)CCCC1 [RIVOCERANIB],> 30 µM (inactive),> 30 µM (inactive),> 30 µM (inactive),> 30 µM (inactive),> 30 µM (inactive),> 30 µM (inactive),> 30 µM (inactive),> 30 µM (inactive),> 30 µM (inactive),> 30 µM (inactive),> 30 µM (inactive)
O=c1[nH]ccc2cc(OC3CCNCC3)ccc12 [SAR-407899 FREE BASE],> 30 µM (inactive),> 30 µM (inactive),> 30 µM (inactive),> 30 µM (inactive),> 30 µM (inactive),> 30 µM (inactive),> 30 µM (inactive),> 30 µM (inactive),> 30 µM (inactive),> 30 µM (inactive),> 30 µM (inactive)
CN1CCN(CCOc2cc(OC3CCOCC3)c3c(Nc4c(Cl)ccc5c4OCO5)ncnc3c2)CC1 [SARACATINIB],> 30 µM (inactive),> 30 µM (inactive),> 30 µM (inactive),> 30 µM (inactive),> 30 µM (inactive),> 30 µM (inactive),> 30 µM (inactive),> 30 µM (inactive),> 30 µM (inactive),> 30 µM (inactive),> 30 µM (inactive)

# Continued, values first:
Kd [1],Kd [2],Kd [3],Kd [4],Kd [5],Kd [6],Kd [7],Kd [8],Kd (Septin-9),Kd (ADP/ATP translocase 2),Kd [9],SMILES
> 30 µM (inactive),> 30 µM (inactive),> 30 µM (inactive),> 30 µM (inactive),> 30 µM (inactive),> 30 µM (inactive),> 30 µM (inactive),> 30 µM (inactive),> 30 µM (inactive),> 30 µM (inactive),> 30 µM (inactive),C#Cc1cccc(Nc2ncnc3cc(OC)c(OCCCCCCC(=O)NO)cc23)c1 [CUDC-101]
> 30 µM (inactive),> 30 µM (inactive),> 30 µM (inactive),> 30 µM (inactive),1.93 µM (active),> 30 µM (inactive),> 30 µM (inactive),> 30 µM (inactive),> 30 µM (inactive),> 30 µM (inactive),> 30 µM (inactive),Cn1cc(-c2cnn3c(N)c(Br)c([C@@H]4CCCNC4)nc23)cn1 [SCH-900776]
